{
  "source": "paper PMC6386991",
  "about": "(International Journal of Molecular Sciences, 2019)",
  "key": {"Aβ (1–42)": {"molecular_target": "Aβ (1–42) (Homo sapiens, UniProt P05067)", "sequence (P05067 672-713 limits assumed)": "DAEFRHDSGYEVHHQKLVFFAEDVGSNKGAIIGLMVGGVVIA", "assay": "Self-induced Aβ(1–42) aggregation, Thioflavin T assay", "type": "biochemical", "source_text": "Aβ(1–42) is the most amyloidogenic Aβ fragment found in the AD plaques.\nAmyloid β aggregation plays a definitive role in neurodegeneration and AD progression. Thus, inhibition of the Aβ aggregation has been presented as a promising approach for the AD therapy. In order to examine the ability to inhibit Aβ aggregation spectroscopic technique which is analyse with thioflavin T have been used. We investigated the best potent inhibitor towards AChE. […] As well as the study being conducted without the presence of the inhibitor. Aβ42 was dissolved in DMSO to make 125.8 µM stock solution. Each compound (10 µL) and 10 µL of Aβ42 were added into 60 µL of phosphate buffer (PBS at pH 8.0) in a 96-well plate. After shake and incubation for 24 h at 30 °C, 20 µL of 2.5 µM ThT solution in 50 mM glycine–NaOH (pH 8.5) was added. Fluorescence excitation was measured at 446 nm with emission a wavelength of 490 nm after 5 min incubation with the dye. The reported results were obtained as the mean ± SD of triplicates of three independent experiments. […]"}, "[1]": {"assay": "In vitro cytotoxicity assay (MTT) on CCL-110", "conditions": "human, CCL-110 cells (normal human skin fibroblasts)", "description": "Cytotoxicity assay was performed on CCL-110 cell line (normal, human fibroblasts derived from skin). Test over a wide range of concentrations (including the concentrations close to the IC50 of enzymatic inhibition results) was performed."}, "SH-SY5Y cells [2]": {"system": "SH-SY5Y cells", "assay": "Neuroprotection against rotenone/oligomycin A, pre-incubation, MTT", "conditions": "R/O mixture, compound 0.0001 µM"}, "[3]": {"assay": "DPPH free-radical scavenging assay", "conditions": "read-out: DPPH FRS50 ± SD"}, "[4]": {"molecular_target": "T1, equine serum BuChE (EqBuChE) (Equus caballus, UniProt P81908)", "T1 construct": "equine serum BuChE (EqBuChE); from tissue; host or cells: equine serum", "T1 sequence (P81908 whole entry)": "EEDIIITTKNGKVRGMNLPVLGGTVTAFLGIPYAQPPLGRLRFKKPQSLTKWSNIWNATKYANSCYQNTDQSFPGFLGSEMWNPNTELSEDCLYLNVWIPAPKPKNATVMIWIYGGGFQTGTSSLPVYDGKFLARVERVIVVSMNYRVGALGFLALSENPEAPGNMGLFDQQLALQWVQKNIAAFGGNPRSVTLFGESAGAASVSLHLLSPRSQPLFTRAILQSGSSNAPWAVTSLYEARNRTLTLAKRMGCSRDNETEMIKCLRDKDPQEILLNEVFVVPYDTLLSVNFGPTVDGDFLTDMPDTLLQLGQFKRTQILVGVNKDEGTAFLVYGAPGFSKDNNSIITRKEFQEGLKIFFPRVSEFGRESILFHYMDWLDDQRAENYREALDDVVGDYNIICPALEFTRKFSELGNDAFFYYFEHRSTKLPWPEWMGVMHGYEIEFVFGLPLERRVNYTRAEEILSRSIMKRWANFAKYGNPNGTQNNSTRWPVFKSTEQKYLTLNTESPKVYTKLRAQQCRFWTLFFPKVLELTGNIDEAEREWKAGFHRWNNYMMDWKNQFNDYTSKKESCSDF", "assay": "biochemical", "conditions": "read-out: BuChE IC50 ± SD"}, "SH-SY5Y cells [5]": {"system": "SH-SY5Y cells", "assay": "Neuroprotection against oxidative stress, H2O2, MTT"}, "[6]": {"assay": "ABTS radical scavenging assay", "conditions": "read-out: ABTS FRS50 ± SD"}, "[7]": {"assay": "LogP assay (HPLC, calibration curve)", "type": "physicochemical", "conditions": "reversed-phase HPLC, Waters Xbridge C18 column; Experimental", "protocol": "After pKa assay we decided to use TEA because of the best properties for the assay. Coefficient of determination was over 0.96 for calibration curve (Figure 3). […] LogP values calculated by ChemAxon nad ACD/Percepta software were inflated in comparison to our experimental result (Table 3).\nMethanol (POCH) was used as an organic modifier. Demineralized water was purified in our faculty. Triethylamine (TEA) (Sigma Aldrich) was dissolved in concentration 30 mM in methanol and in water. Ten various isocratic mobile phases were used in calibration and assay. The first mobile phase contained 50% methanol solution with 30 mM TEA and 50% water solution with 30 mM TEA. Each next mobile phase contained 5% more methanol solution; 95% methanol solution and 5% water solution mix was used as the last mobile phase; 30 mM triethylamine in all mobile phases allowed us to analyzed basic substances. Basic solutions were used, because a neutral form of the compounds was required in logP assay. […]\nThe test compound was eluted by all mobile phases and obtained retention times were used to calculate logkw value. LogP value was read from calibration curve. Obtained value was compared with calculated values by online software chemicalize.com (ChemAxon 2018) and ACD/Percepta Version 14.0.0 (Advanced Chemistry Development, Inc., Metropolitan Toronto, ON, Canada)."}, "[8]": {"assay": "pKa assay (UV spectra in buffers pH 5.6 to 12.4)", "type": "physicochemical", "conditions": "phosphate buffers in methanol:water (1:1), pH 5.6 to 12.4, Experimental", "source_text": "LogP is one of properties used in Lipinski’s rule of five. Our compounds were designed as a potential drug in AD therapy. Fulfillment of Lipinski’s rule of five allows us to suppose that the compound will show adequate pharmacokinetics. […] In the chemical structure of our compound occur four nitrogen atoms with a free ion pair, which allow us to gradually ionize the whole compound at different pH value. […] Direct determination of the ratio between consecutive form of molecule allows to measure the pKa value (Figure 2). The change of distribution charge in molecule affects noticeably the change of the ultraviolet (UV) spectra. […] We used absorbance ratios and mathematical calculation allowed to estimate specific pH value for each ionized form and finally to calculate pKa values (Figure 3). The value pKa1 calculated by ChemAxon and ACD/Percepta software are close to value pKa1 obtained by our method. pKa2 value calculated by ChemAxon software and pKa2 calculated by ACD/Percepta were inflated in comparison with our experimental result pKa2 (Table 3). […]\nSpectrophotometric measurement was performed in 96 wells plate by using Synergy H1 microplate reader (BioTek, Vinoosky, VT, USA) with Gen5 software (BioTek). […] Further calculations on UV spectra were performed by using mathematical ratios of absorbance 332/343 nm and 343/332 nm and according to methodology developed by Musil et al.. […]"}, "EeAChE": {"molecular_target": "EeAChE (Electrophorus electricus, UniProt O42275)", "sequence (O42275 24-633)": "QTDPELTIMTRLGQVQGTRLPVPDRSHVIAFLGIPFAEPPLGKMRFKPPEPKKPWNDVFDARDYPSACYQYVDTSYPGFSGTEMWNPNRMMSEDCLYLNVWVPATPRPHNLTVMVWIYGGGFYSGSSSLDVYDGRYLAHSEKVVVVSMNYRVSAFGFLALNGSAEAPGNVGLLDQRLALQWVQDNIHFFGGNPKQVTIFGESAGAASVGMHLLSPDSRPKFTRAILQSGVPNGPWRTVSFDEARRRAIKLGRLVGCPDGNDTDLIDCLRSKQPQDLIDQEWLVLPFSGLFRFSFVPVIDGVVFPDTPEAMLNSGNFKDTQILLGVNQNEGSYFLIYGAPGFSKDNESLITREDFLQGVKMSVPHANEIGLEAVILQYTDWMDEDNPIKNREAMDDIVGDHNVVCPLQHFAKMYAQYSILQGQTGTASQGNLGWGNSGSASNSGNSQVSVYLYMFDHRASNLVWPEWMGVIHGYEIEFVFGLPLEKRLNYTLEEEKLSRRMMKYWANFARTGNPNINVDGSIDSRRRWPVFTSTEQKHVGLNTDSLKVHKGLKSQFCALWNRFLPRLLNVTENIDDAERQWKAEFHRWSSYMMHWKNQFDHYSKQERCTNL", "assay": "Kinetic characterization of AChE inhibition (Lineweaver–Burk plot)", "type": "biochemical, electric eel", "conditions": "Km and Vmax", "protocol": "To obtain the mechanism of EeAChE inhibition, kinetic experiments were performed.\nKinetic characterization of AChE and BuChE was performed using the reported method with different concentrations of the substrate (S)—acetylthiocholine iodide (in range of […]) prepared in phosphate buffer (pH 8.0). […] Then, the inhibitor (14 µL) was added into the assay solution. Kinetic characterizations of the hydrolysis of acetylthiocholine […] catalyzed by AChE were done spectrophotometrically at 412 nm. A parallel control with no inhibitor in the mixture, allowed adjusting activities to be measured at various times."}, "SH-SY5Y cells [9]": {"system": "SH-SY5Y cells", "assay": "Neuroprotection against rotenone/oligomycin A, co-incubation, MTT", "conditions": "R/O mixture"}, "[10]": {"molecular_target": "AChE-BACE-1A protein pair (Homo sapiens, UniProt P22303+P56817)", "sequence (P22303 52-577)": "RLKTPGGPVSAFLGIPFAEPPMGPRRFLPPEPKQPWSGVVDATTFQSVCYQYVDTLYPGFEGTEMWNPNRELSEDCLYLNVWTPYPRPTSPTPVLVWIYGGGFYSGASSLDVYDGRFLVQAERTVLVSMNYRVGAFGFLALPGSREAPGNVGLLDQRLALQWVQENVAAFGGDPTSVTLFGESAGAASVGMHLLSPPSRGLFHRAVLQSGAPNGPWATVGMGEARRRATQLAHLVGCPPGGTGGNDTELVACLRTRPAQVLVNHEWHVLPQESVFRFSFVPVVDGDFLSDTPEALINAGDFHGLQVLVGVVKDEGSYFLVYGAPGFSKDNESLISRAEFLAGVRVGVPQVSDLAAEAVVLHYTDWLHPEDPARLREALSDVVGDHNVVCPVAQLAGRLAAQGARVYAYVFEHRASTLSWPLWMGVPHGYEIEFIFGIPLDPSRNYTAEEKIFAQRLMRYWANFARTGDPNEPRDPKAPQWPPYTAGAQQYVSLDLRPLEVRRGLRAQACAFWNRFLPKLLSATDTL", "sequence (P56817 46-457)": "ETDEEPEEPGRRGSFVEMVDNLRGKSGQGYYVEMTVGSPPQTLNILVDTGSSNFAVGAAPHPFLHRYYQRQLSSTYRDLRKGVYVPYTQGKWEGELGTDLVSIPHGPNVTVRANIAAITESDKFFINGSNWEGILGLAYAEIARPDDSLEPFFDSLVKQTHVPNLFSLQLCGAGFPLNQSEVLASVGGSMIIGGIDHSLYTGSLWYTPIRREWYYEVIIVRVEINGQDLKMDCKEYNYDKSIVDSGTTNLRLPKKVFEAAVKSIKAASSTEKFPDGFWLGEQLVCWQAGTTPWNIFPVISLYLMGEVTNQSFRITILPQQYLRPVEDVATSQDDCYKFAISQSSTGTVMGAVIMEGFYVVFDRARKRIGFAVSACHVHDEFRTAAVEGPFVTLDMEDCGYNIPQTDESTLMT", "assay": "Yeast three-hybrid (Y3H) test, AChE-BACE-1A", "conditions": "10 µM hybrid ligand, DDO/X/A agar plates"}, "[11]": {"conditions": "Homo sapiens, SH-SY5Y, read-out: % cell viability"}},
  "note": "Where two headings read alike, the source gives them in different places.",
  "data": [
    {"smiles": "O=C(NCCCCCCNc1c2c(nc3ccccc13)CCC2)c1ccc(Cl)nc1", "note": "[Compound 3e]", "values": [
      {"measurement": "IC50", "setting": "Aβ (1–42)", "value": "15 ± 0.6", "unit": "µM"},
      {"measurement": "inhibition at 10 µM", "setting": "Aβ (1–42); 10 µM compound", "value": "40 ± 4.8", "unit": "%"},
      {"measurement": "inhibition at 25 µM", "setting": "Aβ (1–42); 25 µM compound", "value": "63 ± 4.2", "unit": "%"},
      {"measurement": "inhibition at 50 µM", "setting": "Aβ (1–42); 50 µM compound", "value": "72 ± 2.9", "unit": "%"},
      {"measurement": "inhibition at 100 µM", "setting": "Aβ (1–42); 100 µM compound", "value": "79 ± 3.2", "unit": "%"},
      {"measurement": "IC50 at 48 h", "setting": "[1]", "value": 0.638, "unit": "µM"},
      {"measurement": "neuroprotection", "setting": "SH-SY5Y cells [2]", "value": 3.98, "unit": "%"},
      {"measurement": "EC50", "setting": "[3]", "value": "> 20000", "unit": "µM"},
      {"measurement": "IC50", "setting": "[4]", "value": "0.153 ± 0.02", "unit": "µM"},
      {"measurement": "neuroprotective activity (in words)", "setting": "SH-SY5Y cells [5]; H2O2 100 µM, compound 10–0.01 µM", "value": "at none concentration, 3e had neuroprotective activity"},
      {"measurement": "viability at 0.01 µM", "setting": "SH-SY5Y cells [5]; [11]", "value": 60.4, "unit": "%"},
      {"measurement": "viability at 0.1 µM", "setting": "SH-SY5Y cells [5]; [11]", "value": 29.2, "unit": "%"},
      {"measurement": "viability at 1 µM", "setting": "SH-SY5Y cells [5]; [11]", "value": 18.4, "unit": "%"},
      {"measurement": "viability at 10 µM", "setting": "SH-SY5Y cells [5]; [11]", "value": 14.3, "unit": "%"},
      {"measurement": "EC50", "setting": "[6]", "value": "> 20000", "unit": "µM"},
      {"measurement": "viability at 24 h, 0.1 µM", "setting": "in vitro", "value": 100, "unit": "%"},
      {"measurement": "viability at 24 h, 1 µM", "setting": "in vitro", "value": 99.7, "unit": "%"},
      {"measurement": "viability at 24 h, 10 µM", "setting": "in vitro", "value": 93, "unit": "%"},
      {"measurement": "chromatographic logP", "setting": "[7]", "value": 3.99},
      {"measurement": "pKa", "setting": "[8]; read-out: pKa1", "value": 8.53},
      {"measurement": "pKa", "setting": "[8]; read-out: pKa2", "value": 11.3},
      {"measurement": "type of EeAChE inhibition", "setting": "EeAChE", "value": "mixed inhibition"},
      {"measurement": "neuroprotective properties (in words)", "setting": "SH-SY5Y cells [9]", "value": "did not have neuroprotective properties at any concentrations"},
      {"measurement": "hybrid ligand-induced interaction AChE-BACE-1A", "setting": "[10]", "value": "Blue colonies, indicating putative interaction"}
    ]}
  ]
}
